The text below walks through data of patent US12398125B2, “Nitrogen-containing saturated heterocyclyl derivative” (Sumitomo Pharma Co., Ltd., priority 2022, dated 2025).

In the test the test system is α-synuclein aggregate in neurospheroid prepared from human iPS cells with a mutation in PLA2G6 gene. The test can be described thus: Test 2: suppressing the accumulation of α-synuclein aggregate with neurospheroid. Format: cell-based. The settings on record: 120 h, DMSO = 100%, compound added day 4, measured day 9 after induction of differentiation; for activity at 0.1 µM: 100 nM, read-out: Amount of aggregate (%) 100 nM; for activity at 1 µM: 1000 nM, read-out: Amount of aggregate (%) 1000 nM. On the procedure: Test 2: Evaluation of Suppressing the Accumulation of α-Synuclein Aggregate with Neurospheroid Prepared from Human iPS Cells with a Mutation in PLA2G6 Gene
(1) Induction of Differentiation from Human iPS Cell to Neural Cell
Neural stem cells were induced from PLA2G6 gene mutant iPS cells with PSC Neuronal Induction Medium (Thermo Fisher Scientific Inc., cat #A1647801). Neurospheroid was prepared from the induced neural stem cells by three-dimensional culture system, and preserved with BrainPhys Neuronal Medium (STEMCELL Technologies, cat #ST-05793) comprising NeuroCult SM1 Neuronal Supplement, N2 Supplement-A, 20 ng/mL BDNF, 20 ng/mL GDNF, 1 mM dibutyryl cAMP, and 200 nM ascorbic acid. Half of the culture medium was replaced on day 2 and day 4 after the induction of differentiation.
The test compound was diluted with the culture medium so as to be twice the final concentration, and an equal volume of the twice-concentrated solution was added to each well when half of the culture medium was replaced on day 4 after induction of differentiation.
(2) Evaluation of the Amount of α-Synuclein Aggregate
From the neurospheroid 9 days after the induction of differentiation, proteins were extracted with a TBS solution containing 1% TritionX-100, and the extracted proteins were subjected to a protein analysis with Simple Western system (Protein Simple, Inc., cat #SM-W008) using an α-synuclein antibody (Thermo Fisher Scientific Inc., cat #AHB0261) to measure the amount of the α-synuclein aggregate.
Assuming that the amount of the aggregate in the neurospheroid added with a DMSO solution is 100%, the amount of the aggregate in the neurospheroid added with each test compound was evaluated.

Counter-ions that a name gives are not always drawn.

Take `CC1(C(=O)N2CCC(c3cnccc3C(F)(F)F)CC2)COC1` [Example 3, (3-methyloxetan-3-yl){4-[4-(trifluoromethyl)pyridin-3-yl]piperidin-1-yl}methanone]: the activity at 0.1 µM is 6% and the activity at 1 µM was determined as 10%.
As for `CC1(C(=O)N2CCC(c3cccnc3C(F)(F)F)CC2)COC1` [Example 4, (3-methyloxetan-3-yl){4-[2-(trifluoromethyl)pyridin-3-yl]piperidin-1-yl}methanone], the activity at 0.1 µM amounted to 30% and the activity at 1 µM amounted to 29%.
Consider `CCC1(C(=O)N2CCC(c3cncc(C(F)(F)F)c3)CC2)COC1` [Example 6], for which the activity at 0.1 µM worked out at 97% and the activity at 1 µM was 81%.
The like results for `CCC1(C(=O)N2CCC(c3cccnc3C(F)(F)F)CC2)COC1` [Example 7] were, in that order, 23% and 52%.
Turning to `CCC1(C(=O)N2CCC(c3cnccc3C(F)(F)F)CC2)COC1` [Example 8], the activity at 0.1 µM was determined as 7% and the activity at 1 µM worked out at 13%.
The like results for `CCC1(C(=O)N2CCC(c3ccc(C(F)(F)F)cn3)CC2)COC1` [Example 10] were, in that order, 25% and 29%.
In the case of `CC1(C(=O)N2CCCC(c3ccc(C(F)(F)F)nc3)C2)COC1` (stereo not shown) [Example 11], the activity at 0.1 µM was determined as 3% and the activity at 1 µM was 97%.
The corresponding values for `CCC1(C(=O)N2CCCC(c3ccc(C(F)(F)F)nc3)C2)COC1` (stereo not shown) [Example 12] are 35% and 12%.
For the molecule `CC1(C(=O)N2CC(c3ccc(C(F)(F)F)nc3)C2)COC1` [Example 13], the activity at 0.1 µM came out at 11% and the activity at 1 µM stood at 7%.
In the case of `CC1(C(=O)N2CCC(c3ccc(C(F)(F)F)nc3)C2)COC1` (stereo not shown) [Example 14], the activity at 0.1 µM amounted to 37% and the activity at 1 µM is 22%.
For the molecule `CCC1(C(=O)N2CCC(c3ccc(C(F)(F)F)nc3)C2)COC1` (stereo not shown) [Example 15], the activity at 0.1 µM is 23% and the activity at 1 µM was found to be 48%.
`C[C@H]1C[C@@H](c2ccc(C(F)(F)F)nc2)CCN1C(=O)C1(C)COC1` [Example 16]: the activity at 0.1 µM was determined as 26% and the activity at 1 µM is 106%.
`C[C@H]1C[C@H](c2ccc(C(F)(F)F)nc2)CCN1C(=O)C1(C)COC1` [Example 17]: the activity at 0.1 µM was found to be 28% and the activity at 1 µM amounted to 40%.
The corresponding values for `CCC1(C(=O)N2CC[C@H](c3ccc(C(F)(F)F)nc3)C[C@@H]2C)COC1` [Example 18] are 81% and 80%.
Consider `CCC1(C(=O)N2CC[C@@H](c3ccc(C(F)(F)F)nc3)C[C@@H]2C)COC1` [Example 19], for which the activity at 0.1 µM came to 5% and the activity at 1 µM was 18%.
The like results for `CC1(C(=O)N2CCC(O)(c3ccc(C(F)(F)F)nc3)CC2)COC1` [Example 20] were, in that order, 2% and 91%.
The corresponding values for `CC1(C(=O)N2CCC(F)(c3ccc(C(F)(F)F)nc3)CC2)COC1` [Example 21] are 73% and 77%.
Turning to `O=C(C1CCOCC1)N1CCC(c2ccc(C(F)(F)F)nc2)CC1` [Example 22], the activity at 0.1 µM came out at 24% and the activity at 1 µM turned out to be 50%.
For `CC1(C(=O)N2CCC(c3ccc(C(F)(F)F)nc3)CC2)CCOCC1` [Example 23], the activity at 0.1 µM was determined as 23% and the activity at 1 µM came to 49%.
As to `O=C(C1CCOC1)N1CCC(c2ccc(C(F)(F)F)nc2)CC1` (stereo not shown) [Example 24], the activity at 0.1 µM worked out at 46% and the activity at 1 µM was found to be 39%.
`O=C([C@H]1CCOC1)N1CCC(c2ccc(C(F)(F)F)nc2)CC1` [Example 25]: the activity at 0.1 µM amounted to 80% and the activity at 1 µM turned out to be 71%.
The like results for `O=C([C@@H]1CCOC1)N1CCC(c2ccc(C(F)(F)F)nc2)CC1` [Example 26] were, in that order, 26% and 33%.
For the molecule `O=C([C@H]1CCCO1)N1CCC(c2ccc(C(F)(F)F)nc2)CC1` [Example 27], the activity at 0.1 µM worked out at 5% and the activity at 1 µM came out at 29%.
The corresponding values for `O=C([C@@H]1CCCO1)N1CCC(c2ccc(C(F)(F)F)nc2)CC1` [Example 28] are 23% and 63%.
Consider `CCC1(C(=O)N2CCC(c3cnc(C(F)(F)F)c(F)c3)CC2)COC1` [Example 30], for which the activity at 0.1 µM stood at 16% and the activity at 1 µM was found to be 56%.
The corresponding values for `Cc1cc(C(F)(F)F)ncc1C1CCN(C(=O)C2(C)COC2)CC1` [Example 31, (3-methyloxetan-3-yl){4-[4-methyl-6-(trifluoromethyl)pyridin-3-yl]piperidin-1-yl}methanone] are 14% and 1%.
For `CC1(C(=O)N2CCC(c3ccc(C(F)(F)F)nc3)CC2)CNC1` [Example 33, (3-Methylazetidin-3-yl){4-[6-(trifluoromethyl)pyridin-3-yl]piperidin-1-yl}methanone], the activity at 0.1 µM is 22% and the activity at 1 µM amounted to 22%.
Take `CC1(C(=O)N2CCC(c3cccnc3C(F)(F)F)CC2)CNC1` [Example 34]: the activity at 0.1 µM worked out at 43% and the activity at 1 µM is 127%.
As to `CC1(C(=O)N2CCC(c3cncc(C(F)(F)F)c3)CC2)CNC1` [Example 36], the activity at 0.1 µM came out at 78% and the activity at 1 µM was determined as 81%.
On to `CC1(C(=O)N2CCC(c3ccc(C(F)(F)F)cn3)CC2)CNC1` [Example 37], for which the activity at 0.1 µM was found to be 13% and the activity at 1 µM turned out to be 106%.
As for `CC1(C(=O)N2CCCC(c3ccc(C(F)(F)F)nc3)C2)CNC1` (stereo not shown) [Example 38], the activity at 0.1 µM was 6% and the activity at 1 µM stood at 4%.
The corresponding values for `CC1(C(=O)N2CCC(c3ccc(C(F)(F)F)nc3)C2)CNC1` (stereo not shown) [Example 39] are 92% and 70%.
Turning to `O=C(C1CCNCC1)N1CCC(c2ccc(C(F)(F)F)nc2)CC1` [Example 40], the activity at 0.1 µM turned out to be 29% and the activity at 1 µM came out at 8%.
For the molecule `CN1CC(C)(C(=O)N2CCC(c3ccc(C(F)(F)F)nc3)CC2)C1` [Example 41, (1,3-Dimethylazetidin-3-yl){4-[6-(trifluoromethyl)pyridin-3-yl]piperidin-1-yl}methanone hydrochloride], the activity at 0.1 µM was found to be 57% and the activity at 1 µM is 70%.
As for `CN1CC(C)(C(=O)N2CCC(c3cnccc3C(F)(F)F)CC2)C1` [Example 43, (1,3-dimethylazetidin-3-yl){4-[4-(trifluoromethyl)pyridin-3-yl]piperidin-1-yl}methanone], the activity at 0.1 µM came to 9% and the activity at 1 µM came to 11%.
`CN1CC(C)(C(=O)N2CCCC(c3ccc(C(F)(F)F)nc3)C2)C1` (stereo not shown) [Example 46]: the activity at 0.1 µM was 38% and the activity at 1 µM stood at 25%.
For the molecule `CN1CC(C)(C(=O)N2CCC(c3ccc(C(F)(F)F)nc3)C2)C1` (stereo not shown) [Example 47], the activity at 0.1 µM worked out at 1% and the activity at 1 µM was 55%.
The corresponding values for `CN1CCC(C(=O)N2CCC(c3ccc(C(F)(F)F)nc3)CC2)CC1` [Example 48] are 16% and 21%.
With `O=C(N1CCOCC1)N1CCC(c2ccc(C(F)(F)F)nc2)CC1` [Example 49, (Morpholin-4-yl){4-[6-(trifluoromethyl)pyridin-3-yl]piperidin-1-yl}methanone], the activity at 0.1 µM came to 13% and the activity at 1 µM was 18%.
In the case of `O=C(C1COC1)N1CCC(c2ccc(C(F)(F)F)nc2)CC1` [Example 50], the activity at 0.1 µM was 86% and the activity at 1 µM is 101%.
In the case of `CC1(C)CC(C(=O)N2CCC(c3ccc(C(F)(F)F)nc3)CC2)CCO1` (stereo not shown) [Example 51], the activity at 0.1 µM was 100% and the activity at 1 µM worked out at 87%.
In the case of `CC1(C(=O)N2CCC(c3ccnc(C(F)(F)F)c3)CC2)COC1` [Example 52], the activity at 0.1 µM amounted to 36% and the activity at 1 µM came to 100%.
The corresponding values for `CC1(C(=O)N2CCC(c3ccncc3C(F)(F)F)CC2)COC1` [Example 53] are 106% and 82%.
With `CC1(C(=O)N2CCC(c3ccc(Cl)nc3)CC2)COC1` [Example 54], the activity at 0.1 µM stood at 63% and the activity at 1 µM was found to be 35%.
For the molecule `Cc1ccc(C2CCN(C(=O)C3(C)COC3)CC2)cn1` [Example 55], the activity at 0.1 µM came to 75% and the activity at 1 µM was 45%.
For `CC(C)c1ccc(C2CCN(C(=O)C3(C)COC3)CC2)cn1` [Example 56], the activity at 0.1 µM was found to be 30% and the activity at 1 µM was determined as 71%.
As to `CC1(C(=O)N2CCC(c3ccc(C(F)(F)F)nn3)CC2)COC1` [Example 57], the activity at 0.1 µM amounted to 88% and the activity at 1 µM amounted to 50%.
